The values below come from patent US10513521B2, “Compositions and methods for inhibiting BMP” (The Brigham and Women's Hospital, Inc., priority 2014, dated 2019).

Changes are numbered by the printed parent chain. Some results are limits rather than exact numbers.

The IC50 is the concentration needed to halve the response being measured.

The target in experiment [1] is T1, ALK2 (Mus musculus, UniProt P37172).
T1 construct: The C2C12 cell line was selected for the measurement of ALK2 activity using BMP6 as the agonist; host or cells: C2C12
T1 sequence (P37172 21-509): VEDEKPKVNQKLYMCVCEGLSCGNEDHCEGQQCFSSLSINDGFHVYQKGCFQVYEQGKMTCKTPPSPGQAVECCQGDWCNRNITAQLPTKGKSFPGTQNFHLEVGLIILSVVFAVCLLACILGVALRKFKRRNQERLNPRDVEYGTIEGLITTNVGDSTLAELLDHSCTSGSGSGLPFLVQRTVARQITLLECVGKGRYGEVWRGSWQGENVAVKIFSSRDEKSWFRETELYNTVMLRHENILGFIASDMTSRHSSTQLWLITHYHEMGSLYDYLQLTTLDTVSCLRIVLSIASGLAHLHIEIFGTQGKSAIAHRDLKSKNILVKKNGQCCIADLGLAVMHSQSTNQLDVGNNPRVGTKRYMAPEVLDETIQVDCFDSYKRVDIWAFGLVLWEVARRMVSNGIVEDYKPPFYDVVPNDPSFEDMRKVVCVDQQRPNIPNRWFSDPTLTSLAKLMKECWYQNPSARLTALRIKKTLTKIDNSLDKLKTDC
The experiment in a line: HTRF pSMAD1 cell-based ALK2 assay (C2C12 cells, BMP6 as agonist). The conditions noted are these: cell-based assay, BMP6; read-out: Cell IC50 BMP6. Summed up:
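Phospho-SMAD1 HTRF readout, detection incubated overnight at room temperature. Before that: starved cells in 0.1% FBS for 4 h, 30 min compound pretreatment, then 30 min agonist, BMP6 on C2C12 or BMP9 on BAOEC.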
In general terms: In TR-FRET formats the signal depends on donor and acceptor labels being close together.

The nature of experiment [2]: Cell-based assay, TGFb1 (Cell IC50).
The next experiment addresses ALK1 (Homo sapiens, UniProt P37023). The experiment in a line: TR-FRET enzymatic ALK kinase assay, ALK1.
The target in experiment [3] is T2, ALK2 (Homo sapiens, UniProt Q04771).
T2 sequence (Q04771 21-509): T1 sequence (P37172 21-509) with V1M, Q10P, I121L, E162D, S310P
The experiment can be described thus: TR-FRET enzymatic ALK kinase assay, ALK2.
Method: (§1) Briefly, the ALKs enzymatic assay was initiated by dispense 2.5 μl enzyme in 1× kinase reaction buffer. The assay plate was then added with compounds followed by incubation at room temperature for 10 minutes. Then 2.5 μl/well substrate was added.

For a further experiment, the target named is ALK3 (Homo sapiens, UniProt P36894). The experiment can be described thus: TR-FRET enzymatic ALK kinase assay, ALK3.
Sequence of ALK3 (P36894 24-532): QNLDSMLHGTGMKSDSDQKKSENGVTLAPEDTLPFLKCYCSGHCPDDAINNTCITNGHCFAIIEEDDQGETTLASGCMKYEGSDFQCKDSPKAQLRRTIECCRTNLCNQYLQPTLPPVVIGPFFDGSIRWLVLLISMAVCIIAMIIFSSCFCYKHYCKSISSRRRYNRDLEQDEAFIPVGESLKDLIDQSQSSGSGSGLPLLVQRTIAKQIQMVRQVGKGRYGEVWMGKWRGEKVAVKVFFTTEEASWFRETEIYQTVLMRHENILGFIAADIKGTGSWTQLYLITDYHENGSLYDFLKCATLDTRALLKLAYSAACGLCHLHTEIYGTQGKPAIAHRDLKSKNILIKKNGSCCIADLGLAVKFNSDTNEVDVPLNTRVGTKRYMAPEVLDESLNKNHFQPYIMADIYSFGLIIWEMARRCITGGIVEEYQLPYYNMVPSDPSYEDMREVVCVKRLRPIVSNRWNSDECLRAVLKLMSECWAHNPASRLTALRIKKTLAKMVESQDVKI
The next experiment addresses T3, ALK4 (Homo sapiens, UniProt P36896).
T3 sequence (P36896 24-505): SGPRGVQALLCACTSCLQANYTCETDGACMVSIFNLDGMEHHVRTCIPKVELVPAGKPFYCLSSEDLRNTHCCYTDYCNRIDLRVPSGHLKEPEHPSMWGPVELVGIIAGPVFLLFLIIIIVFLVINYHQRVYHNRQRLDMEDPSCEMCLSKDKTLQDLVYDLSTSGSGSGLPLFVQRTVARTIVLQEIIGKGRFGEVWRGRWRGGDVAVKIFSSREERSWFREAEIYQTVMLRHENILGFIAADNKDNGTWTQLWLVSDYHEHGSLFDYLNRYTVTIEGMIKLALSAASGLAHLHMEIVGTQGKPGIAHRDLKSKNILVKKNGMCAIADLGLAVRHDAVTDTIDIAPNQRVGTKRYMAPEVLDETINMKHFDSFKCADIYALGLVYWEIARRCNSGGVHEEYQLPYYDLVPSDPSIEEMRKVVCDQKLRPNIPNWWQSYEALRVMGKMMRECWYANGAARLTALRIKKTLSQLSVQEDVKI
The experiment in a line: TR-FRET enzymatic ALK kinase assay, ALK4.

Another experiment has as its target T4, ALK5 (Homo sapiens, UniProt P36897).
T4 sequence (P36897 34-503): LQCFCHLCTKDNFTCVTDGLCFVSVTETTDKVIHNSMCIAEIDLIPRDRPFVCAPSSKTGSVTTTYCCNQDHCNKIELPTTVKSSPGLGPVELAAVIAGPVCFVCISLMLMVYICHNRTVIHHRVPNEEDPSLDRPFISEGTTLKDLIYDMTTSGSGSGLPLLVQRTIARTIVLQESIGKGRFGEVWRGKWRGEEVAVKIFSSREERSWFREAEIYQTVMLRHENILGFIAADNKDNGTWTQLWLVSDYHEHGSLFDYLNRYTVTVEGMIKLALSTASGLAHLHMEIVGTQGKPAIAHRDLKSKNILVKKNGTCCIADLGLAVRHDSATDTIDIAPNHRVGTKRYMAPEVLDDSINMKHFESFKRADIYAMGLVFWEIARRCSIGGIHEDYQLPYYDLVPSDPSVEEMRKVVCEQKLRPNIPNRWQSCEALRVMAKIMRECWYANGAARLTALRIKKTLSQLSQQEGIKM
The experiment can be described thus: TR-FRET enzymatic ALK kinase assay, ALK5.

The target of the next experiment is ALK6 (Homo sapiens, UniProt O00238). The experiment can be described thus: TR-FRET enzymatic ALK kinase assay, ALK6.
Sequence of ALK6 (O00238 14-502): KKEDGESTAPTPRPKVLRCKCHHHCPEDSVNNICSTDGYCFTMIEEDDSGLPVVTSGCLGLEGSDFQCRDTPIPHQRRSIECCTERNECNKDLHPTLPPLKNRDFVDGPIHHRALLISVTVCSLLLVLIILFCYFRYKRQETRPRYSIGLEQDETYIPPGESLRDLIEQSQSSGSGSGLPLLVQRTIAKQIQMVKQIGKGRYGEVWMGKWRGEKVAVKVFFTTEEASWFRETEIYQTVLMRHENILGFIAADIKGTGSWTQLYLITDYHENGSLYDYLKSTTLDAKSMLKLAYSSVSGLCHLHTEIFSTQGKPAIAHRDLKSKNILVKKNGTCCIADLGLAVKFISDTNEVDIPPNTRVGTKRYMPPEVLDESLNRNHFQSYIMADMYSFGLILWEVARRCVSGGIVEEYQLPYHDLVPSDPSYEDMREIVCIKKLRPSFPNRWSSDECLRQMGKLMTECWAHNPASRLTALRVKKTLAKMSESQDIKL

Sequence of ALK1 (P37023 22-503): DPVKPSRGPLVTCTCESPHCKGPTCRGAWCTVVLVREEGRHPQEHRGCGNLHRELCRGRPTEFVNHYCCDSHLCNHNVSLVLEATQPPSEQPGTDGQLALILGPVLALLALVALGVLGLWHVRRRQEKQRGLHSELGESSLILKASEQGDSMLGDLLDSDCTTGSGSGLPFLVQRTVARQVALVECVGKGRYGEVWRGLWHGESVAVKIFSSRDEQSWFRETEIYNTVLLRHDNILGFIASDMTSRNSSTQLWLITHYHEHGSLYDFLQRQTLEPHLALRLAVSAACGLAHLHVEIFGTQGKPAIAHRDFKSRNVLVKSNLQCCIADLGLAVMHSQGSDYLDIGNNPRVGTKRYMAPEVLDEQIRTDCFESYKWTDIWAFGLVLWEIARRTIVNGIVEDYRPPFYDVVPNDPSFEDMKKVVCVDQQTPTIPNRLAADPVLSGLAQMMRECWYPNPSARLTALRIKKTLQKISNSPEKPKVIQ
Method for ALK1: as §1
Method for ALK3: as §1
Method for ALK4: as §1
Method for ALK5: Six ALK kinase enzyme assays were developed for determination of compound activities on ALK1, ALK2, ALK3, ALK4, ALK5 and ALK6.
as §1
Method for ALK6: as §1

Regarding `CS(=O)(=O)c1cccc(-c2cnn3cc(-c4ccc(CCN5CCCCC5)cc4)cnc23)c1` [Compound 86, 3-(3-(methylsulfonyl)phenyl)-6-(4-(2-(piperidin-1-yl)ethyl)phenyl)pyrazolo[1,5-a]pyrimidine], the IC50 was 0.419 µM on ALK2 [1]; 57 µM in experiment [2]; 0.17 µM on ALK1; 0.037 µM against ALK2 [3]; 1.5 µM against ALK3; greater than 10 µM on ALK4. Further, the IC50 against ALK5 and at ALK6 was greater than 10 µM throughout.

`NS(=O)(=O)c1ccc(-c2cnn3cc(-c4ccc(OC5(CN6CCCCC6)COC5)cc4)cnc23)c2ccccc12` [Compound 87, 4-(6-(4-((3-(piperidin-1-ylmethyl)oxetan-3-yl)oxy)phenyl)pyrazolo[1,5-a]pyrimidin-3-yl)naphthalene-1-sulfonamide]: the IC50 on ALK2 [1] was 0.479 µM; in experiment [2], 30 µM; against ALK1 it was 0.084 µM; on ALK2 [3], 0.023 µM; against ALK3, 1.8 µM; against ALK4, greater than 10 µM. The IC50 at ALK5 and against ALK6 was greater than 10 µM each time.

For the compound `c1ccc(-c2cnn3cc(-c4ccc(CCN5CCCCC5)cc4)cnc23)cc1` [Compound 88, 3-phenyl-6-(4-(2-(piperidin-1-yl)ethyl)phenyl)pyrazolo[1,5-a]pyrimidine], the half-maximal inhibitory concentration (IC50) on ALK2 [1] is 5.92 µM; in experiment [2] it was 0.058 µM; against ALK1 it was 1.3 µM; at ALK2 [3], 0.42 µM; at ALK3, greater than 10 µM; against ALK4, greater than 10 µM. Further, the IC50 against ALK5 and against ALK6 was greater than 10 µM each time.

Take `c1cc(-c2cc[nH]n2)cc(-c2cnn3cc(-c4ccc(CCN5CCCCC5)cc4)cnc23)c1` [Compound 90, 3-(3-(1H-pyrazol-3-yl)phenyl)-6-(4-(2-(piperidin-1-yl)ethyl)phenyl)pyrazolo[1,5-a]pyrimidine]: the IC50 is 0.397 µM on ALK2 [1]; 15 µM in experiment [2]; 0.068 µM at ALK1; 0.014 µM on ALK2 [3]; greater than 10 µM on ALK3; 0.87 µM against ALK4. Besides, the IC50 against ALK5 and at ALK6 was greater than 10 µM each time.

Regarding `CN1CCC(c2ccc(-c3cnc4c(-c5cccc(S(C)(=O)=O)c5)cnn4c3)cc2)CC1` [Compound 91, 6-(4-(1-methylpiperidin-4-yl)phenyl)-3-(3-(methylsulfonyl)phenyl)pyrazolo[1,5-a]pyrimidine], the IC50 at ALK2 [1] is 0.179 µM; in experiment [2], 59.2 µM; against ALK1, 0.22 µM; against ALK2 [3] it was 0.052 µM; at ALK3, 3.2 µM; against ALK4, greater than 10 µM. The IC50 at ALK5 and on ALK6 was greater than 10 µM in each case.

Consider `CN1CCC(c2ccc(-c3cnc4c(-c5cccc(C(C)(C)O)c5)cnn4c3)cc2)CC1` [Compound 92, 2-(3-(6-(4-(1-methylpiperidin-4-yl)phenyl)pyrazolo[1,5-a]pyrimidin-3-yl)phenyl)propan-2-ol], for which the IC50 at ALK2 [1] was 0.266 µM; in experiment [2] it was 17 µM; against ALK1, 0.091 µM; against ALK2 [3], 0.026 µM; against ALK3, 1.6 µM; against ALK4, greater than 10 µM. In addition, the IC50 on ALK5 and on ALK6 was greater than 10 µM in each case.

For the compound `CS(=O)(=O)c1cccc(-c2cnn3cc(-c4ccc(C5CCNCC5)cc4)cnc23)c1` [Compound 94, 3-(3-(methylsulfonyl)phenyl)-6-(4-(piperidin-4-yl)phenyl)pyrazolo[1,5-a]pyrimidine], the IC50 was 0.43 µM at ALK2 [1]; 4.4 µM in experiment [2]; 0.22 µM at ALK1; 0.053 µM against ALK2 [3]; 6.1 µM at ALK3; greater than 10 µM on ALK4. The IC50 against ALK5 and on ALK6 was greater than 10 µM each time.

Regarding `NS(=O)(=O)c1cccc(-c2cnn3cc(-c4ccc(C5CCNCC5)cc4)cnc23)c1` [Compound 95, 3-(6-(4-(piperidin-4-yl)phenyl)pyrazolo[1,5-a]pyrimidin-3-yl)benzenesulfonamide], the IC50 at ALK2 [1] is 1.5 µM; in experiment [2] it was 0.064 µM; against ALK1 it was 0.52 µM; at ALK2 [3], 0.079 µM; at ALK3, 9.7 µM; against ALK4, greater than 10 µM. Also, the IC50 on ALK5 and against ALK6 was greater than 10 µM each time.

Turning to `CC(C)(CN1CCCCC1)Oc1ccc(-c2cnc3c(-c4cccc(S(N)(=O)=O)c4)cnn3c2)cc1` [Compound 96, 3-(6-(4-((2-methyl-1-(piperidin-1-yl)propan-2-yl)oxy)phenyl)pyrazolo[1,5-a]pyrimidin-3-yl)benzenesulfonamide], the IC50 was determined as 0.152 µM at ALK2 [1]; 0.919 µM in experiment [2]; 0.24 µM at ALK1; 0.066 µM against ALK2 [3]; 4.9 µM against ALK3; 6 µM on ALK4. Besides, the IC50 against ALK5 and against ALK6 was greater than 10 µM throughout.

As to `CC(O)c1cccc(-c2cnn3cc(-c4ccc(CCN5CCCCC5)cc4)cnc23)c1` (stereo not shown) [Compound 97, 1-(3-(6-(4-(2-(piperidin-1-yl)ethyl)phenyl)pyrazolo[1,5-a]pyrimidin-3-yl)phenyl)ethanol], the IC50 is 1.16 µM at ALK2 [1]; 0.0012 µM in experiment [2]; 0.51 µM against ALK1; 0.099 µM at ALK2 [3]; 3 µM at ALK3; greater than 10 µM against ALK4. The IC50 against ALK5 and on ALK6 was greater than 10 µM throughout.

Take `CC(O)c1cccc(-c2cnn3cc(-c4ccc(C5CCNCC5)cc4)cnc23)c1` (stereo not shown) [Compound 98, 1-(3-(6-(4-(piperidin-4-yl)phenyl)pyrazolo[1,5-a]pyrimidin-3-yl)phenyl)ethanol]: the IC50 at ALK2 [1] was 0.668 µM; in experiment [2], 7 µM; at ALK1, 0.31 µM; against ALK2 [3] it was 0.072 µM; on ALK3 it was 3.3 µM; at ALK4, greater than 10 µM. Further, the concentration for half-maximal inhibition (IC50) at ALK5 and against ALK6 was greater than 10 µM in each case.
